pIC50: −log10 of the molar value. Like-named read-outs stand apart in the source and are kept apart here.
Experiments:
[1] = test system: Shionogi mouse mammary carcinoma cells; test: Antiandrogenic activity on DHT-stimulated Shionogi mouse mammary carcinoma cell number; assay type: cell-based; details: for pIC50 / A = Ki OH-Flu/Ki compound: inhibition of DHT-stimulated Shionogi cell number; for pIC50: 10-12 days, read-out: Antiandrogenic activity IC50; for A = Ki OH-Flu/Ki compound: ratio of Ki of hydroxyflutamide versus tested compound, higher values preferable; for IC50: read-out: Antiandrogenic activity IC50 (nM)
[2] = test system: ear sebaceous glands in the male hamster; test: Topical antiandrogenic activity, ear sebaceous glands model in the male hamster; assay type: in vivo, Golden Syrian hamster; details: Mesocricetus auratus, 336 h, topical on left pinna, area of sebaceous glands of left ear, read-out: Ear Area Inhibition. Vs Control (%); for inhibition in vivo at 0.01 mg: dose 10 μg daily for 14 days; for inhibition in vivo at 0.03 mg: dose 30 μg daily for 14 days
Text: • Column 2 represent the daily dose for 14 days of tested compound dissolved in ten μl solution of acetone:ethanol:propylene Glycol (1:1:2; v:v:v) applied onto a region between the two cartilage ridges of the ventral surface of left pinna. • Column 3 represents the percentage of inhibition of the area of the sebaceous glands of the left ear of the treated animals versus the area of the sebaceous glands of the left ear of the control animals.
C—In vivo Assessment of Topical Antiandrogenic Activity
The antiandrogenic activity of compounds for topical use was determined using the ear sebaceous glands model in the male hamster.
Male Golden Syrian Hamsters (SYR) of 110-120 g were obtained from Harlan Sprague-Dawley (Madison, USA) and housed up to 2 per plastic cage in a temperature (22±3° C.) and light (12 h light/day, lights on at 7h15)-controlled environment. The hamsters were fed with Certified Rodent Diet 5002 (pellet) and had access to tap water ad libitum. The animals were acclimatized for at least five days prior to beginning the study. Animals were randomly assigned to groups of eight hamsters. One group of hamsters were castrated under isoflurane-induced anesthesia on the day of dosing initiation (SD 1) and used as control group.
To evaluate the antiandrogenic activity, the tested compounds were applied topically on the inner part of the left ear, once daily, for 14 days. […] For animals of the castrated and intact control groups, one ten-μL vehicle was applied onto the left ear. No solution was applied on the right ear.
On Study Day 15, the hamsters were euthanized by cervical dislocation under isoflurane anesthesia. The left and right ears were collected attached together by the head skin, flat fixed on a paper and then immersed in 10% neutral buffered formalin. Punctures making a circular hole of 6 mm were made on the flat fixed ear in the region where the solution has been applied. These punch-made specimens were collected from each ear. Using a scalpel blade, the collected 6 mm round ear specimens were cut in the middle between the two cartilage ridges. The two equal parts of the ear round specimens were embedded in paraffin. After processing the tissue, the two parts were vertically embedded parallel to each other in such a way that the flat 6 mm area was facing out. From each paraffin block, one section (5 μm thick) was cut and collected on a glass slide. Thus, each slide contained two elongated sections of 6 mm length. Slides were stained with hematoxylin and eosin.
Using the video camera and the lens number X5 of the light microscope, the resulting field appearing on the screen has a length of 0.953 mm. When the first 6 mm long section was examined from the left to the right, the first and second fields were ignored and the third and fourth fields were captured for analysis by the image analyzer. Each field has the length of 0.953 mm. With the help of the screen mouse, the sebaceous glands within the whole field length (0.953 mm) were marked. Also, an area having the length of the whole field and the height between stratum granulosum and the upper edge of the cartilage was drawn.
The total area of the sebaceous glands (μm^2) in each examined field was calculated by the Image Analyser. We also measured the total area, which has the length of 0.953 mm and the height between stratum granulosum and the cartilage. In addition, the percentage of the area occupied by the glands was obtained. Thus, for each ear, two sections were cut and two fields from each section were analyzed. The total of the four readings was averaged and the mean standard error of the mean was calculated by the image analyzer. The results were expressed in μm^2 as the total surface of glands per field and also as percentage of the area occupied by the glands in the tissue.

N#Cc1ccc(-c2c(F)cccc2F)cc1C(F)(F)F [EM-4004]
pIC50 ([1]; Mus musculus): < 6.30 | A = Ki OH-Flu/Ki compound [1]: <0.2 | inhibition in vivo at 0.01 mg ([2]; topical): 60%

N#Cc1ccc(-c2cc(F)ccc2F)cc1C(F)(F)F [EM-4046]
pIC50 ([1]; Mus musculus): < 6.30 | A = Ki OH-Flu/Ki compound [1]: <0.2 | inhibition in vivo at 0.03 mg ([2]; topical): 5%

COc1ccc(-c2ccc(C#N)c(C(F)(F)F)c2)cc1F [EM-4057]
IC50 ([1]; Mus musculus): 84 nM | A = Ki OH-Flu/Ki compound [1]: 1.2 | inhibition in vivo at 0.01 mg ([2]; topical): 64%

COc1cc(F)ccc1-c1ccc(C#N)c(C(F)(F)F)c1 [EM-4068]
IC50 ([1]; Mus musculus): 96 nM | A = Ki OH-Flu/Ki compound [1]: 0.9 | inhibition in vivo at 0.03 mg ([2]; topical): 15%

COc1ccc(-c2ccc(C#N)c(C(F)(F)F)c2)cc1Br [EM-4080]
pIC50 ([1]; Mus musculus): 6.99 | A = Ki OH-Flu/Ki compound [1]: 0.6 | inhibition in vivo at 0.03 mg ([2]; topical): 5%

COc1ccc(-c2ccc(C#N)c(C(F)(F)F)c2)c(F)c1 [EM-4174]
IC50 ([1]; Mus musculus): 77 nM | A = Ki OH-Flu/Ki compound [1]: 2.1 | inhibition in vivo at 0.01 mg ([2]; topical): 86%

N#Cc1ccc(-c2ccc(N)cc2)cc1C(F)(F)F [EM-4186]
pIC50 ([1]; Mus musculus): 6.93 | A = Ki OH-Flu/Ki compound [1]: 1.2 | inhibition in vivo at 0.03 mg ([2]; topical): 0%

N#Cc1ccc(-c2cccc(C(O)C(F)(F)F)c2)cc1C(F)(F)F (stereo not shown) [EM-4265]
pIC50 ([1]; Mus musculus): 6.94 | A = Ki OH-Flu/Ki compound [1]: 0.7 | inhibition in vivo at 0.03 mg ([2]; topical): 0%

N#Cc1ccc(-c2ccc(Br)cc2C(F)(F)F)cc1[N+](=O)[O-] [EM-4792]
pIC50 ([1]; Mus musculus): < 6.30 | A = Ki OH-Flu/Ki compound [1]: <0.2

COc1ccc(-c2c(F)cc(F)cc2F)cc1C(F)(F)F [EM-4833]
pIC50 ([1]; Mus musculus): < 6.30 | A = Ki OH-Flu/Ki compound [1]: <0.2

CCN(CC)C(=O)c1cc(F)ccc1-c1ccc(C#N)c(C(F)(F)F)c1 [EM-4841]
pIC50 ([1]; Mus musculus): < 6.30 | A = Ki OH-Flu/Ki compound [1]: <0.2

CCCCN(CCCC)C(=O)c1cc(F)ccc1-c1ccc(C#N)c(C(F)(F)F)c1 [EM-4844]
pIC50 ([1]; Mus musculus): < 6.30 | A = Ki OH-Flu/Ki compound [1]: <0.2

CCCN(CCC)C(=O)c1cc(F)ccc1-c1ccc(C#N)c(C(F)(F)F)c1 [EM-4845]
pIC50 ([1]; Mus musculus): < 6.30 | A = Ki OH-Flu/Ki compound [1]: <0.2

N#Cc1ccc(-c2ccc(F)cc2C(N)=O)cc1Cl [EM-4849]
pIC50 ([1]; Mus musculus): < 6.30 | A = Ki OH-Flu/Ki compound [1]: <0.2

N#Cc1ccc(-c2c(F)cc(F)cc2F)cc1Cl [EM-4851]
pIC50 ([1]; Mus musculus): < 6.30 | A = Ki OH-Flu/Ki compound [1]: <0.2

CCCNC(=O)c1cc(F)ccc1-c1ccc(C#N)c(C(F)(F)F)c1 [EM-4855]
pIC50 ([1]; Mus musculus): < 6.30 | A = Ki OH-Flu/Ki compound [1]: <0.2

CCCCNC(=O)c1cc(F)ccc1-c1ccc(C#N)c(C(F)(F)F)c1 [EM-4856]
pIC50 ([1]; Mus musculus): < 6.30 | A = Ki OH-Flu/Ki compound [1]: <0.2

N#Cc1ccc(-c2ccc(F)cc2C(=O)Nc2ccc(Cl)cc2)cc1C(F)(F)F [EM-4863]
pIC50 [1]: 6.79 | A = Ki OH-Flu/Ki compound [1]: 0.3 | inhibition in vivo at 0.03 mg [2]: 21%

N#Cc1ccc(-c2ccc(F)cc2C(=O)Nc2ccccc2)cc1C(F)(F)F [EM-4864]
IC50 ([1]; Mus musculus): > 500 nM | A = Ki OH-Flu/Ki compound [1]: <0.2

CN(C)C(=O)c1cc(F)ccc1-c1ccc(C#N)c(C(F)(F)F)c1 [EM-4865]
pIC50 ([1]; Mus musculus): < 6.30 | A = Ki OH-Flu/Ki compound [1]: <0.2

CCNC(=O)c1cc(F)ccc1-c1ccc(C#N)c(C(F)(F)F)c1 [EM-4866]
pIC50 ([1]; Mus musculus): < 6.30 | A = Ki OH-Flu/Ki compound [1]: <0.2

N#Cc1ccc(-c2cc([N+](=O)[O-])c(F)cc2F)cc1C(F)(F)F [EM-4867]
pIC50 ([1]; Mus musculus): < 6.30 | A = Ki OH-Flu/Ki compound [1]: <0.2

COc1ccc(-c2ccc(F)cc2F)cc1Br [EM-4871]
pIC50 ([1]; Mus musculus): < 6.30 | A = Ki OH-Flu/Ki compound [1]: <0.2

COc1ccc(-c2ccc(C#N)c(C(F)(F)F)c2)c(C(N)=O)c1 [EM-4905]
pIC50 ([1]; Mus musculus): < 6.30 | A = Ki OH-Flu/Ki compound [1]: <0.2

CCOc1ccc(-c2ccc(C#N)c(C(F)(F)F)c2)c(C(N)=O)c1 [EM-4925]
pIC50 ([1]; Mus musculus): < 6.30 | A = Ki OH-Flu/Ki compound [1]: <0.2

Cc1cc(F)cc([N+](=O)[O-])c1-c1ccc(C#N)c(C(F)(F)F)c1 [EM-4947]
pIC50 ([1]; Mus musculus): < 6.30 | A = Ki OH-Flu/Ki compound [1]: <0.2

N#Cc1ccc(-c2c(F)cc(F)cc2[N+](=O)[O-])cc1C(F)(F)F [EM-4948]
pIC50 ([1]; Mus musculus): < 6.30 | A = Ki OH-Flu/Ki compound [1]: <0.2

CNC(=O)c1cc(F)ccc1-c1ccc(C#N)c(C(F)(F)F)c1 [EM-4961]
pIC50 ([1]; Mus musculus): < 6.30 | A = Ki OH-Flu/Ki compound [1]: <0.2

N#Cc1ccc(-c2ccc(Br)cc2C(N)=O)cc1C(F)(F)F [EM-4979]
pIC50 ([1]; Mus musculus): < 6.30 | A = Ki OH-Flu/Ki compound [1]: <0.2

CN(C)CCN(C)C(=O)c1cc(F)ccc1-c1ccc(C#N)c(C(F)(F)F)c1 [EM-4980]
pIC50 ([1]; Mus musculus): < 6.30 | A = Ki OH-Flu/Ki compound [1]: <0.2

CC(=O)Nc1cc(-c2ccc(C#N)c(C(F)(F)F)c2)c(C(N)=O)cc1F [EM-5002]
pIC50 ([1]; Mus musculus): < 6.30 | A = Ki OH-Flu/Ki compound [1]: <0.2

N#Cc1ccc(-c2cc(NC(=O)c3ccc(Cl)cc3)c(F)cc2C(N)=O)cc1C(F)(F)F [EM-5003]
pIC50 ([1]; Mus musculus): < 6.30 | A = Ki OH-Flu/Ki compound [1]: <0.2

N#Cc1ccc(-c2c(F)cc(F)cc2C(F)(F)F)cc1C(F)(F)F [EM-5004]
pIC50 ([1]; Mus musculus): < 6.30 | A = Ki OH-Flu/Ki compound [1]: <0.2

N#Cc1ccc(-c2ccc(F)cc2C(=O)N2CCCC2)cc1C(F)(F)F [EM-5014]
pIC50 ([1]; Mus musculus): < 6.30 | A = Ki OH-Flu/Ki compound [1]: <0.2

N#Cc1ccc(-c2ccc(F)cc2C(=O)Nc2ccc(F)cc2)cc1C(F)(F)F [EM-5018]
pIC50 ([1]; Mus musculus): < 6.30 | A = Ki OH-Flu/Ki compound [1]: <0.2

N#Cc1ccc(-c2ccc(F)cc2C(=O)Nc2ccncc2)cc1C(F)(F)F [EM-5019]
pIC50 ([1]; Mus musculus): < 6.30 | A = Ki OH-Flu/Ki compound [1]: <0.2

N#Cc1ccc(-c2ccc(F)cc2C(=O)N2CCCCC2)cc1C(F)(F)F [EM-5020]
IC50 ([1]; Mus musculus): > 500 nM | A = Ki OH-Flu/Ki compound [1]: <0.2

N#Cc1ccc(-c2ccc(F)cc2C(=O)N2CCOCC2)cc1C(F)(F)F [EM-5021]
pIC50 ([1]; Mus musculus): < 6.30 | A = Ki OH-Flu/Ki compound [1]: <0.2

N#Cc1ccc(-c2ccc(F)cc2C(=O)Nc2ccc(F)cc2F)cc1C(F)(F)F [EM-5038]
pIC50 ([1]; Mus musculus): < 6.30 | A = Ki OH-Flu/Ki compound [1]: <0.2

CSc1ccc(NC(=O)c2cc(F)ccc2-c2ccc(C#N)c(C(F)(F)F)c2)cc1 [EM-5082]
pIC50 ([1]; Mus musculus): < 6.30 | A = Ki OH-Flu/Ki compound [1]: <0.2

CN(C)c1ccc(NC(=O)c2cc(F)ccc2-c2ccc(C#N)c(C(F)(F)F)c2)cc1 [EM-5083]
pIC50 ([1]; Mus musculus): < 6.30 | A = Ki OH-Flu/Ki compound [1]: <0.2

N#Cc1ccc(-c2ccc(F)cc2C(=O)NCc2ccccc2)cc1C(F)(F)F [EM-5085]
pIC50 ([1]; Mus musculus): < 6.30 | A = Ki OH-Flu/Ki compound [1]: <0.2

N#Cc1ccc(-c2ccc(F)cc2C(=O)Nc2ccc(Cl)cc2)cc1C(F)(F)F [EM-5086]
pIC50 [1]: < 6.30 | A = Ki OH-Flu/Ki compound [1]: <0.2

COC=Nc1cc(F)cc(C(N)=O)c1-c1ccc(C#N)c(C(F)(F)F)c1 [EM-5093]
pIC50 ([1]; Mus musculus): < 6.30 | A = Ki OH-Flu/Ki compound [1]: <0.2

N#Cc1ccc(-c2c(NC(=O)c3ccc(Cl)cc3)cc(F)cc2C(N)=O)cc1C(F)(F)F [EM-5094]
pIC50 ([1]; Mus musculus): < 6.30 | A = Ki OH-Flu/Ki compound [1]: <0.2

N#Cc1cc(F)c(-c2ccc(F)cc2F)cc1Cl [EM-5111]
pIC50 ([1]; Mus musculus): < 6.30 | A = Ki OH-Flu/Ki compound [1]: <0.2

Cc1cc(C#N)c(Cl)cc1-c1ccc(F)cc1F [EM-5112]
IC50 ([1]; Mus musculus): 97 nM | A = Ki OH-Flu/Ki compound [1]: 1.1

Reference: patent US6933321B2, “Antiandrogenic biphenyls” (Endorecherche, Inc., priority 2002, dated 2005)
